Reference: patent US20040009243A1, “Cancer preventive composition comprising ginsenoside glycosides of red ginseng” (priority 2002, published 2004)
“Also recorded” adds a separate entry of the source. Read-outs that look alike come from different tables or passages of the source.

Tests used:
[1] = tested on: lung adenoma induced by benzo(a)pyrene; assay: 9-weeks medium-term anticarcinogenicity test of ginsenosides (Experiment 1); format: in vivo, NIH(GP) mice; details: for incidence of lung adenoma on the average: BP 0.5 mg plus ginsenoside; for incidence of lung adenoma on the average / Incidence (lung adenoma), treatment alone without BP: sacrifice 9th week; for incidence of lung adenoma on the average / Incidence, number of mice with lung adenoma / Incidence, value in parentheses (percent of mice with lung adenoma) / Multiplicity (Mean ± S.D.): BP line = carcinogen alone; for Incidence, number of mice with lung adenoma / Incidence, value in parentheses (percent of mice with lung adenoma) / Multiplicity (Mean ± S.D.): BP 0.5 mg/head + ginsenoside 80 μg/ml; for Incidence (lung adenoma), treatment alone without BP: red ginseng extract 2 mg/ml, ginsenosides 80 μg/ml in drinking water, 6 weeks; for lung adenoma in groups treated singularly, without BP (in words): treatment alone, 9 weeks
Excerpt: 1) Experimental animal: In this experiment newborn non-inbred strain NIH(GP) mice were used. Each experimental animal was in a breeding chamber maintained at constant temperature and humidity and, after weaning, given a solid feed prepared according to the NIH-7 open formula. The experimental animals were allowed to freely take drinking water and diet.
2) Establishment of the test groups: The test groups were a total of 10 groups including the normal control group, the ginsenoside Rg3 treatment group, the ginsenoside Rg5 group, the ginsenoside Rh1 group, the ginsenoside Rh2 group, the BP 0.5 mg group, the BP plus ginsenoside Rg3 group, the BP plus ginsenoside Rg5 group, the BP plus ginsenoside Rh1 group, and the BP plus ginsenoside Rh2 group, wherein 25 to 30 newborn mouse, female and male respectively, were used in each group.
3) Chemical carcinogen: As the chemical carcinogen, benzo(a)pyrene (BP: Sigma Chemical Co.) was used. The given amount of BP was suspended in 1% aqueous gelatin solution and then injected subcutaneously in the subscapular region once in an amount of 0.02 cc (0.5 mg).
4) Administration of respective ginsenosides: Respective ginsenosides, i.e. ginsenoside Rg3, ginsenoside Rg5, ginsenoside Rh1 and ginsenoside Rh2 were suspended in drinking water to 80 μg/ml and daily administered from the 3rd week to 9 th week after birth, i.e. during the period of 6 weeks.
5) Monitoring and sacrifice of experimental animals: The appearance of mice was monitored every time at which the feed and drinking water were changed, beginning from weaning at the 3th week after birth. Mice were weighed at intervals of one week and sacrificed at the 9th week after birth and then subjected to autopsy.
6) Pathological investigation: Immediately after autopsy, lungs were exposed to observe the presence or absence of nodules of lung adenoma, and at the same time, to observe the presence or absence of any lesion in respective main organs by the naked eye. Then lungs were fixed in Tellyesniczky solution and the other main organs were fixed in 10% neutral formalin solution, cut and then examined with a microscope. After fixing of lungs, nodules of long adenoma were counted by the naked eye. Then lungs were cut as in case of other main organs, stained with hematoxylin-eosin and then investigated to find nodules of lung adenoma.
7) Statistical treatment: The comparisons of the calculated lung adenoma incidence in respective test groups were made using the Chi-square test and the comparisons of multiplicity were made using Student's t test to obtain P-value.

[2] = tested on: mouse pulmonary adenoma induced by benzo(a)pyrene; details: BP + ginseng of given age, BP line = carcinogen alone, cited from earlier work
male ICR mice = assay: acute toxicity test (Experiment 2); format: in vivo; details: for autopsy examination, macroscopic (in words) / dead animals (in words): 1000 mg/kg oral, once; for autopsy examination, macroscopic (in words): 14th day after administration; for dead animals (in words): observed for 14 days; for acute toxicity / toxicity (in words): mice, oral route, 1000 mg/kg
Description: 20 male ICR mice weighing 26-30 grams were used in each test group to conduct the acute toxicity test of ginsenosides Rg3, Rg5 and Rh2. Specifically, each of ginsenosides Rg3, Rg5 and Rh2 was prepared in 0.5% Tween 80 as the solvent to the concentration of 100 mg/ml and then orally administered to mice once in an amount of 0.2 ml per 20 grams of body weight. The control group was given only 0.5% Tween 80 solvent via oral route. […] Further, on 14th day after administration the animals were sacrificed and then autopsied to examine macroscopically the main organs.

Structure (SMILES)	incidence of lung adenoma on the average [1]	Incidence, number of mice with lung adenoma ([1]; Sex F)	Incidence, value in parentheses (percent of mice with lung adenoma) ([1]; Sex F)	Multiplicity (Mean ± S.D.) ([1]; Sex F)	Incidence, number of mice with lung adenoma ([1]; Sex M + F)	Incidence, value in parentheses (percent of mice with lung adenoma) ([1]; Sex M + F)	Multiplicity (Mean ± S.D.) ([1]; Sex M + F)	Incidence, number of mice with lung adenoma ([1]; Sex M)	Incidence, value in parentheses (percent of mice with lung adenoma) ([1]; Sex M)	Multiplicity (Mean ± S.D.) ([1]; Sex M)	Incidence (lung adenoma), treatment alone without BP ([1]; Sex F)	Incidence (lung adenoma), treatment alone without BP ([1]; Sex M + F)	Incidence (lung adenoma), treatment alone without BP ([1]; Sex M)	lung adenoma in groups treated singularly, without BP (in words) [1]	autopsy examination, macroscopic (in words) (male ICR mice)	dead animals (in words) (male ICR mice)	acute toxicity / toxicity (in words) (male ICR mice)	also measured
c1ccc2c(c1)cc1ccc3cccc4ccc2c1c34 [Benzo(a)pyrene (BP), benzo(a)pyrene, reference compound]	60%	16	64.0	1.80 ± 2.12	30	60.0	1.50 ± 1.82	14	56.0	1.20 ± 1.44								Incidence of lung adenoma ([2]; Fresh ginseng Extract series): 63.9; Incidence of lung adenoma ([2]; Fresh ginseng Powder series): 41.3; Incidence of lung adenoma ([2]; Red ginseng Extract series): 47.5; Incidence of lung adenoma ([2]; Red ginseng powder series): 48.6; Incidence of lung adenoma ([2]; White ginseng Powder series): 45.0; Incidence of lung adenoma ([2]; White ginseng extract series): 41.3
CC(C)=CCC[C@](C)(O)[C@H]1CC[C@]2(C)[C@@H]1[C@H](O)C[C@@H]1[C@@]3(C)CC[C@H](O[C@@H]4O[C@H](CO)[C@@H](O)[C@H](O)[C@H]4O[C@@H]4O[C@H](CO)[C@@H](O)[C@H](O)[C@H]4O)C(C)(C)[C@@H]3CC[C@]12C [Ginsenoside Rg3, ginsenoside Rg3]	46.7%	15	50.0	1.03 ± 1.27	28	46.7	0.85 ± 1.13	13	43.3	0.67 ± 0.96	0	0	0	did never occur lung adenoma	no special pathological finding	no dead animal was observed	did not exhibit any acute toxicity; also recorded: have no toxicity	
CC(C)=CC/C=C(\C)[C@H]1CC[C@]2(C)[C@@H]1[C@H](O)C[C@@H]1[C@@]3(C)CC[C@H](O[C@@H]4O[C@H](CO)[C@@H](O)[C@H](O)[C@H]4O[C@@H]4O[C@H](CO)[C@@H](O)[C@H](O)[C@H]4O)C(C)(C)[C@@H]3CC[C@]12C [Ginsenoside Rg5, ginsenoside Rg5]	45.0%	14	46.7	1.33 ± 2.89	27	45.0	1.08 ± 2.21	13	43.3	0.83 ± 1.21	0	0	0	did never occur lung adenoma	no special pathological finding	no dead animal was observed	did not exhibit any acute toxicity; also recorded: have no toxicity	
CC(C)=CCC[C@](C)(O)[C@H]1CC[C@]2(C)[C@@H]1[C@H](O)C[C@@H]1[C@@]3(C)CC[C@H](O)C(C)(C)[C@@H]3[C@@H](O[C@@H]3O[C@H](CO)[C@@H](O)[C@H](O)[C@H]3O)C[C@]12C [Ginsenoside Rh1, ginsenoside Rh1, reference compound]		16	53.3	1.49 ± 1.86	31	51.7	1.03 ± 1.27	15	50.0	1.20 ± 1.54				did never occur lung adenoma				
CC(C)=CCC[C@](C)(O)[C@H]1CC[C@]2(C)[C@@H]1[C@H](O)C[C@@H]1[C@@]3(C)CC[C@H](O[C@@H]4O[C@H](CO)[C@@H](O)[C@H](O)[C@H]4O)C(C)(C)[C@@H]3CC[C@]12C [Ginsenoside Rh2, ginsenoside Rh2]	48.3%	16	53.3	1.53 ± 1.93	29	48.3	1.15 ± 1.61	13	43.3	0.77 ± 1.14	0	0	0	did never occur lung adenoma	no special pathological finding	no dead animal was observed	did not exhibit any acute toxicity; also recorded: have no toxicity	
